Assay results reported in patent US4945160A, “Preparation of certain 7-substituted quinolones” (Warner-Lambert Company, priority 1988, dated 1990).
≈ marks a conversion by molar mass, not a printed value. Where two headings read alike, the source gives them in different places.

Columns and labels:
Type in all cases: cell-based
S. pyogenes = assay: In vitro antibacterial activity, microdilution MIC, S. pyogenes; settings: Streptococcus pyogenes, microdilution method, read-out: Minimal Inhibitory Concentration MIC
From the text: (§1) The compounds of the invention display antibacterial activity when tested by the microdilution method as described in Heifetz, et al, Antimicr. Agents and Chemoth., 6, 124 (1974), which is incorporated herein by reference.
(§2) By use of this method, the following minimum inhibitory concentration values (MICs in μg/ml) were obtained for representative compounds of the invention.

S. pneumoniae = assay: In vitro antibacterial activity, microdilution MIC, S. pneumoniae; settings: Streptococcus pneumoniae, microdilution method, read-out: Minimal Inhibitory Concentration MIC
From the text: as §1, §2

E. coli = assay: In vitro antibacterial activity, microdilution MIC, E. coli; settings: Escherichia coli, microdilution method, read-out: Minimal Inhibitory Concentration MIC
From the text: as §1, §2

P. rettgeri = assay: In vitro antibacterial activity, microdilution MIC, P. rettgeri; settings: Providencia rettgeri, microdilution method, read-out: Minimal Inhibitory Concentration MIC
From the text: as §1, §2

P. aeruginosa = assay: In vitro antibacterial activity, microdilution MIC, P. aeruginosa; settings: Pseudomonas aeruginosa, microdilution method, read-out: Minimal Inhibitory Concentration MIC
From the text: as §1, §2

E. cloacae = assay: In vitro antibacterial activity, microdilution MIC, E. cloacae; settings: Enterobacter cloacae, microdilution method, read-out: Minimal Inhibitory Concentration MIC
From the text: as §1, §2

K. pneumoniae = assay: In vitro antibacterial activity, microdilution MIC, K. pneumoniae; settings: Klebsiella pneumoniae, microdilution method, read-out: Minimal Inhibitory Concentration MIC
From the text: as §1, §2

S. aureus = assay: In vitro antibacterial activity, microdilution MIC, S. aureus; settings: microdilution method; for MIC: Staphylococcus aureus, first S. aureus line (strain not given), read-out: Minimal Inhibitory Concentration MIC; for Minimal Inhibitory Concentration MIC: second S. aureus line (strain not given)
From the text: as §1, §2

S. faecalis = assay: In vitro antibacterial activity, microdilution MIC, S. faecalis; settings: Enterococcus faecalis, microdilution method, read-out: Minimal Inhibitory Concentration MIC
From the text: as §1, §2

[1] = first E. coli line (strain not given)
[2] = second E. coli line, last of table (strain not given)

Row | Structure (SMILES) | MIC (S. pyogenes) [µg/mL] | MIC (S. pneumoniae) [µg/mL] | MIC (E. coli; [1]) [µg/mL] | MIC (E. coli; [2]) [µg/mL] | MIC (P. rettgeri) [µg/mL] | MIC (P. aeruginosa) [µg/mL] | MIC (E. cloacae) [µg/mL] | MIC (K. pneumoniae) [µg/mL] | MIC (S. aureus) [µg/mL] | Minimal Inhibitory Concentration MIC (S. aureus) [µg/mL] | MIC (S. faecalis) [µg/mL]
1 | C=Cc1c(F)cc2c(=O)c(C(=O)O)cn(C3CC3)c2c1F [Compound 5, 1-Cyclopropyl-7-ethenyl-6,8-difluoro-1,4-dihydro-4-oxo-3-quinolinecarboxylic acid] | 0.8 (≈ 2.75 µM) | 0.8 (≈ 2.75 µM) | 0.2 (≈ 0.687 µM) | 0.1 (≈ 0.343 µM) | 0.4 (≈ 1.37 µM) | 1.6 (≈ 5.49 µM) | 0.1 (≈ 0.343 µM) | 0.4 (≈ 1.37 µM) | ≤ 0.025 | ≤ 0.025 | 0.2 (≈ 0.687 µM)
2 | CCn1cc(C(=O)O)c(=O)c2cc(F)c(C3CCN(Cc4ccccc4)C3)nc21 (stereo not shown) [Compound 10] | 12.5 (≈ 31.6 µM) | 12.5 (≈ 31.6 µM) | 12.5 (≈ 31.6 µM) | 12.5 (≈ 31.6 µM) | > 25 | > 25 | 12.5 (≈ 31.6 µM) | 25 (≈ 63.2 µM) | 6.3 (≈ 15.9 µM) | 6.3 | 25 (≈ 63.2 µM)
